Test results as given in patent publication US20050288347A1, “Certain triazole-based compounds, compositions, and uses thereof” (priority 2004, published 2005).
“Also recorded” adds a separate entry of the source.

What follows are compounds tested against protein kinase (assay: HTS ATP-utilizing enzyme assay, off-chip mobility-shift format (Caliper HTS 250)). Details: kinase(s) for which the compound exhibits protein kinase inhibitory activity; test compound 10 μM; active = greater than three-sigma from the mean activity of inactive compounds.
Format: biochemical, human
How it was run: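 Single-point screen at 10 μM compound in HEPES pH 7.5 buffer with Triton X-100 and BSA, 2.5 h at 20–22 °C. Substrate-to-phosphopeptide ratio measured by off-chip microfluidic mobility shift; EDTA wells as 100% and DMSO wells as 0% control, hits called at three-sigma limits.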

| Compound | Kinase |
| --- | --- |
| CC(Sc1nnc(-c2cccnc2)n1-c1ccccc1)C(=O)O (centres unmarked) [2-(4-phenyl-5-(pyridin-3-yl)-4H-1,2,4-triazol-3-ylthio)propanoic acid] | AURORA-A |
| O=C(CSc1nnc[nH]1)c1ccc(O)cc1O [2-(4H-1,2,4-triazol-3-ylthio)-1-(2,4-dihydroxyphenyl)ethanone] | GSK3-α |
| O=C(CSc1nnc[nH]1)N1c2ccccc2Sc2ccccc21 [2-(4H-1,2,4-triazol-3-ylthio)-1-(10H-phenothiazin-10-yl)ethanone] | LCK |
| CSCCc1nnc(SCC(=O)O)[nH]1 [2-(5-(2-(methylthio)ethyl)-4H-1,2,4-triazol-3-ylthio)acetic acid] | GSK3-α; also recorded: GSK3-β |
| O=C(O)CSc1nnc(-c2ccc(Cl)c(Cl)c2)[nH]1 [2-(5-(3,4-dichlorophenyl)-4H-1,2,4-triazol-3-ylthio)acetic acid] | GSK3-α; also recorded: GSK3-B β; also recorded: AURORA-A |
| NC(=O)CSc1nnc(-c2ccc(S(=O)(=O)N3CCCCC3)cc2)[nH]1 [2-(5-(4-(piperidin-1-ylsulfonyl)phenyl)-4H-1,2,4-triazol-3-ylthio)acetamide] | GSK3-β; also recorded: AURORA-A; also recorded: GSK3-α |
| O=C(O)CSc1nnc(-c2ccc(OC(F)(F)F)cc2)[nH]1 [2-(5-(4-(trifluoromethoxy)phenyl)-4H-1,2,4-triazol-3-ylthio)acetic acid] | GSK3-β; also recorded: GSK3-α; also recorded: DYRK2 |
| N#CCSc1nnc(-c2ccc(OC(F)(F)F)cc2)[nH]1 [2-(5-(4-(trifluoromethoxy)phenyl)-4H-1,2,4-triazol-3-ylthio)acetonitrile] | DYRK2; also recorded: FLT-3; also recorded: AURORA-A |
| N#CCSc1nnc(-c2ccc(F)cc2)[nH]1 [2-(5-(4-fluorophenyl)-4H-1,2,4-triazol-3-ylthio)acetonitrile] | FLT-3; also recorded: DYRK2; also recorded: GSK3-β |
| Cn1c(SCC#N)nnc1-c1ccc(O)cc1 [2-(5-(4-hydroxyphenyl)-4-methyl-4H-1,2,4-triazol-3-ylthio)acetonitrile] | GSK3-β; also recorded: GSK3-α; also recorded: DAPK1 |
| COc1ccc(-c2nnc(SCC#N)[nH]2)cc1 [2-(5-(4-methoxyphenyl)-4H-1,2,4-triazol-3-ylthio)acetonitrile] | FLT-3; also recorded: DYRK2; also recorded: AURORA-A |
| O=C(CSc1nnc(-c2ccc([N+](=O)[O-])cc2)[nH]1)c1ccccc1 [2-(5-(4-nitrophenyl)-4H-1,2,4-triazol-3-ylthio)-1-phenylethanone] | FLT-3; also recorded: GSK3-β; also recorded: AURORA-A |
| O=C(O)CSc1nnc(-c2ccc([N+](=O)[O-])cc2)[nH]1 [2-(5-(4-nitrophenyl)-4H-1,2,4-triazol-3-ylthio)acetic acid] | GSK3-α; also recorded: GSK3-β; also recorded: DYRK2 |
| O=C(CSc1nnc(COc2ccc(Cl)cc2)[nH]1)c1ccccc1 [2-(5-((4-chlorophenoxy)methyl)-4H-1,2,4-triazol-3-ylthio)-1-phenylethanone] | GSK3-α; also recorded: FLT-3; also recorded: GSK3-β |
| Cc1ccc(-n2c(SCC#N)nnc2-c2ccncc2)cc1 [2-(5-(pyridin-4-yl)-4-p-tolyl-4H-1,2,4-triazol-3-ylthio)acetonitrile] | AURORA-A; also recorded: GSK3-β; also recorded: GSK3-α |

Further lines, results first:

| Kinase | Compound |
| --- | --- |
| GSK3-α | CSCCc1nnc(SCC#N)[nH]1 [2-(5-(2-(methylthio)ethyl)-4H-1,2,4-triazol-3-ylthio)acetonitrile] |
| FYN | COc1ccc(-c2nnc(SCC(=O)O)n2-c2ccccc2)cc1OC [2-(5-(3,4-dimethoxyphenyl)-4-phenyl-4H-1,2,4-triazol-3-ylthio)acetic acid] |
| DAPK1 and AKT1 | Cc1ccc(-n2c(SCC(=O)O)nnc2-c2ccc(Cl)cc2)cc1 [2-(5-(4-chlorophenyl)-4-p-tolyl-4H-1,2,4-triazol-3-ylthio)acetic acid] |
| GSK3-β; also recorded: MAPKAPK-2 | Cn1c(SCC(=O)O)nnc1-c1ccc(O)cc1 [2-(5-(4-hydroxyphenyl)-4-methyl-4H-1,2,4-triazol-3-ylthio)acetic acid] |
| GSK3-β and GSK3-α and INSR | NC(=O)CSc1nnc(-c2ccc(O)cc2)n1-c1ccccc1 [2-(5-(4-hydroxyphenyl)-4-phenyl-4H-1,2,4-triazol-3-ylthio)acetamide] |
| GSK3-β; also recorded: GSK3-α | O=C(O)CSc1nnc(-c2ccc(O)cc2)n1-c1ccccc1 [2-(5-(4-hydroxyphenyl)-4-phenyl-4H-1,2,4-triazol-3-ylthio)acetic acid] |
| PDK1 | COc1ccc(-c2nnc(SCC(N)=O)n2-c2ccccc2)cc1 [2-(5-(4-methoxyphenyl)-4-phenyl-4H-1,2,4-triazol-3-ylthio)acetamide] |
| DAPK1 | Cc1ccc(-n2c(SCC(=O)O)nnc2-c2ccc([N+](=O)[O-])cc2)cc1 [2-(5-(4-nitrophenyl)-4-p-tolyl-4H-1,2,4-triazol-3-ylthio)acetic acid] |
| GSK3-B β; also recorded: GSK3-α | O=C(O)CSc1nnc(COc2ccc(Cl)cc2)[nH]1 [2-(5-((4-chlorophenoxy)methyl)-4H-1,2,4-triazol-3-ylthio)acetic acid] |
| PDGFRR-α and CDK1 | CCn1c(CNc2ccc(C)cc2)nnc1SCC#N [2-(5-((p-toluidino)methyl)-4-ethyl-4H-1,2,4-triazol-3-ylthio)acetonitrile] |
| HCK and CHEK2 | C=C(C)Cn1c(SCC(=O)O)nnc1-c1ccco1 [2-(5-(furan-2-yl)-4-(2-methylallyl)-4H-1,2,4-triazol-3-ylthio)acetic acid] |
| FYN | Cn1c(SCC(=O)N2CCOCC2)nnc1-c1ccco1 [2-(5-(furan-2-yl)-4-methyl-4H-1,2,4-triazol-3-ylthio)-1-morpholinoethanone] |
| AKT1 | O=C(CSc1nnc(-c2ccco2)n1-c1ccccc1)NCCc1ccccc1 [2-(5-(furan-2-yl)-4-phenyl-4H-1,2,4-triazol-3-ylthio)-N-phenethylacetamide] |
| CHEK2 | N#CCSc1nnc(-c2ccco2)n1-c1ccccc1 [2-(5-(furan-2-yl)-4-phenyl-4H-1,2,4-triazol-3-ylthio)acetonitrile] |
| FYN | CC(Sc1nnc(COc2ccccc2)n1-c1ccccc1)C(=O)O (centres unmarked) [2-(5-(phenoxymethyl)-4-phenyl-4H-1,2,4-triazol-3-ylthio)propanoic acid] |
| AURORA-A | Cc1ccc(-n2c(SCC(=O)O)nnc2-c2cccnc2)cc1 [2-(5-(pyridin-3-yl)-4-p-tolyl-4H-1,2,4-triazol-3-ylthio)acetic acid] |
| AURORA-A | Cc1ccc(-n2c(SC(C)C(=O)O)nnc2-c2cccnc2)cc1 (centres unmarked) [2-(5-(pyridin-3-yl)-4-p-tolyl-4H-1,2,4-triazol-3-ylthio)propanoic acid] |

Same assay, conditions: test compound 10 μM; active = activity greater than three-sigma from the mean of the predominately inactive population for that enzyme

| Compound | protein kinase against which the compound exhibits inhibitory activity (Table 3) |
| --- | --- |
| COc1ccccc1-n1c(SCc2ccccc2Cl)nnc1-c1ccccc1O [2-(5-(2-chlorobenzylthio)-4-(2-methoxyphenyl)-4H-1,2,4-triazol-3-yl)phenol] | CDK2-cyclinA and PRAK |
| OCCSc1nnc(-c2ccc(Cl)c(Cl)c2)[nH]1 [2-(5-(3,4-dichlorophenyl)-4H-1,2,4-triazol-3-ylthio)ethanol] | AURORA-A; also recorded: FLT-3; also recorded: CHEK2 |
| COc1ccccc1-n1c(SCCO)nnc1-c1cccc(Cl)c1 [2-(5-(3-chlorophenyl)-4-(2-methoxyphenyl)-4H-1,2,4-triazol-3-ylthio)ethanol] | ROCK2 |
